Data taken from US10561638B2, “Methods for treating dependence” (Biotie Therapies, Inc., priority 2007, dated 2020).

Assays:
[1] = test system: pithed SHRs; assay: Pressor response to pre-ganglionic nerve stimulation in pithed SHRs; type: in vivo, spontaneously hypertensive rats
Method: The in vivo hemodynamic activity of nepicastat was further assessed in conscious, restrained SHRs, a model having high sympathetic drive to cardiovascular tissues. Hemodynamic study in SHRs. Male SHRs (15-16 week old) were used in the study. The animals were lightly anesthetized with ether and the left femoral artery and vein were catheterized for measurement of blood pressure and drug administration, respectively. The animals were placed in restrainers and allowed to recover for 30-40 min. After obtaining baseline measurements, the animals were treated, orally, with either vehicle or the appropriate dose of nepicastat and hemodynamic parameters were continuously recorded for 4 h. The animals were then anesthetized with pentobarbital, placed on a heating pad (37° C.) and ventilated with a Harvard rodent ventilator. After administration of atropine (1 mg/kg, iv) and tubocurarine (1 mg/kg, iv), the animals were pithed through the orbit of the eye with a stainless steel rod. The […] rod was stimulated electrically with 1 ms pulses of 80V at different frequencies (0.15, 0.45, 1.5, 5, 15 Hz) to obtain frequency-pressor response curves. […] The response was slow in onset, reaching its plateau in 3-4 h. […] Following this study, the rats were pithed and the effects of nepicastat on the pressor response to pre-ganglionic nerve stimulation (PNS) of the spinal cord were evaluated 5 h after dosing.

[2] = target: D1 dopamine receptors (Homo sapiens, UniProt P21728); assay: Radioligand binding assay
D1 dopamine receptors, sequence (P21728 whole entry): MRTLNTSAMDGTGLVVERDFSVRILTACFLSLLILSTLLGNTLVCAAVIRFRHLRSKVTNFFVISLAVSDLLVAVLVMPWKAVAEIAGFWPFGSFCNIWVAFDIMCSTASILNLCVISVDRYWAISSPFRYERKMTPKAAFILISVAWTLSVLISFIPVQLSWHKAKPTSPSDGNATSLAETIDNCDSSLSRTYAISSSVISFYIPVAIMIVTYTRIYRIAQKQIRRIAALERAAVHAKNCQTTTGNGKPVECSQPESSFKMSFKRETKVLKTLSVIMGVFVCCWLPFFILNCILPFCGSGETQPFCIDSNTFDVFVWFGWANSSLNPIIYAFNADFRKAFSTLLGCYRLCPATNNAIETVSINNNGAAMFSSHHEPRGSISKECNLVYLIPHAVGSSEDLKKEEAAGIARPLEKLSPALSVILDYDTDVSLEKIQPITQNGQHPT
Method: (§1) The activity of nepicastat at twelve selected enzymes and receptors was determined using established assays. Binding data were analyzed by iterative curve-fitting to a four parameter logistic equation. Ki values were calculated from IC50 values using the Cheng-Prusoff equation. Enzyme inhibitory activity was expressed as IC50 (concentration required to produce 50% inhibition of enzyme activity).
(§2) The activity of nepicastat at eleven different enzymes was determined using established assays. The affinity of nepicastat for thirteen selected receptors was determined by radioligand binding assays using standard filtration techniques and membrane preparations. Binding data were analyzed by iterative curve fitting to a four parameter logistic equation. Ki values were calculated using the Cheng-Prusoff equation.
(§3) The binding affinity for nepicastat was screened at selected receptors. […] Thus nepicastat and its primary metabolite were not potent inhibitors for the receptors listed above.

[3] = target: 5-HT1A serotonin receptors (Homo sapiens, UniProt P08908); assay: Radioligand binding assay
5-HT1A serotonin receptors, sequence (P08908 whole entry): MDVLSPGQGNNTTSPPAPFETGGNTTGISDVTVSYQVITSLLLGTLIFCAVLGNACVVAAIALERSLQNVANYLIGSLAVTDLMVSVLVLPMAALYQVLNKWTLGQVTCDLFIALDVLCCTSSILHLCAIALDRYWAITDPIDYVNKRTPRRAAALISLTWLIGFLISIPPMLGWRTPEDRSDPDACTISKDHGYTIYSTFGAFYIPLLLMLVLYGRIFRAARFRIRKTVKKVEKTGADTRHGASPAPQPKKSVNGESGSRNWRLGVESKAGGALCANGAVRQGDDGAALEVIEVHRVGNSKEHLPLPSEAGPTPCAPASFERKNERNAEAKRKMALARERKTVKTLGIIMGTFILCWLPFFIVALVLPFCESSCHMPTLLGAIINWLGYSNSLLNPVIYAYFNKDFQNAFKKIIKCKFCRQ
Method: as §1, §2, §3

[4] = target: D2 dopamine receptors (Homo sapiens, UniProt P14416); assay: Radioligand binding assay
D2 dopamine receptors, sequence (P14416 whole entry): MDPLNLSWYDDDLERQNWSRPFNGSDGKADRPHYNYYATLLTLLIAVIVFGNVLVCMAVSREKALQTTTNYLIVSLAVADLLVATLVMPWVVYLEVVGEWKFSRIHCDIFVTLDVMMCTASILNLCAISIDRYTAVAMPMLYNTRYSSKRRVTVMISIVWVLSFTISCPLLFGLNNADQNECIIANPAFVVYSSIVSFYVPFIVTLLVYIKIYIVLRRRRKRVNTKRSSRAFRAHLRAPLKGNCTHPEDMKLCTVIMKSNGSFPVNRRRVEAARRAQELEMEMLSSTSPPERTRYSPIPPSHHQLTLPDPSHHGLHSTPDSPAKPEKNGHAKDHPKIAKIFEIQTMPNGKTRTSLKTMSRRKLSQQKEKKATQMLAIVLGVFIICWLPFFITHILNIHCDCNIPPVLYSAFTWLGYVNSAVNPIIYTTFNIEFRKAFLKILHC
Method: as §1, §2, §3

[5] = target: M1 muscarinic receptors (Homo sapiens, UniProt P11229); assay: Radioligand binding assay
M1 muscarinic receptors, sequence (P11229 whole entry): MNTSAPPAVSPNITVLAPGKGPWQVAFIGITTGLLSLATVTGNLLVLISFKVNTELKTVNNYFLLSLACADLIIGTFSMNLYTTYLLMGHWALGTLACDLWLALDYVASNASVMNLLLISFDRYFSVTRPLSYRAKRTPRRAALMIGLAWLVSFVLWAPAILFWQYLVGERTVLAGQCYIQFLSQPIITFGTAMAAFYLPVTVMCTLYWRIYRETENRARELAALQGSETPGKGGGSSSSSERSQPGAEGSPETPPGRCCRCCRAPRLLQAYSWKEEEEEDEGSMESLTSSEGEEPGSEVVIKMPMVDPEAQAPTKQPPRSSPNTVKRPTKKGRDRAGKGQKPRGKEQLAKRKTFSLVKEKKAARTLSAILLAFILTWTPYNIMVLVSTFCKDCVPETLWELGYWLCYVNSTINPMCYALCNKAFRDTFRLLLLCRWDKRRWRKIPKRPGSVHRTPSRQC
Method: as §1, §2, §3

[6] = target: 5-HT2A serotonin receptors (Homo sapiens, UniProt P28223); assay: Radioligand binding assay
5-HT2A serotonin receptors, sequence (P28223 whole entry): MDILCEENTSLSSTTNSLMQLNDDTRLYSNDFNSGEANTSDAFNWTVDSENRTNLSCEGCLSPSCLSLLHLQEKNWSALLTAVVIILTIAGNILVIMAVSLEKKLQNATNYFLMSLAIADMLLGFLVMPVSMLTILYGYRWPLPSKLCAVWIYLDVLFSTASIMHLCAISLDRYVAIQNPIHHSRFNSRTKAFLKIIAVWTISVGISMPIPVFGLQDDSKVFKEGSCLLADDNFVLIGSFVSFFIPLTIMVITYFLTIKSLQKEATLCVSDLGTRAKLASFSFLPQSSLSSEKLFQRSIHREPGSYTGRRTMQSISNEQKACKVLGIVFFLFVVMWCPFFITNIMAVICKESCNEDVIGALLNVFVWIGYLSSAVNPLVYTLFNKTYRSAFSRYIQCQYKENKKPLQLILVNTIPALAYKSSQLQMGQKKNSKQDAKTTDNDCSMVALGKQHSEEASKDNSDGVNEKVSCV
Method: as §1, §2, §3

[7] = target: 5-HT2C serotonin receptors (Homo sapiens, UniProt P28335); assay: Radioligand binding assay
5-HT2C serotonin receptors, sequence (P28335 33-458): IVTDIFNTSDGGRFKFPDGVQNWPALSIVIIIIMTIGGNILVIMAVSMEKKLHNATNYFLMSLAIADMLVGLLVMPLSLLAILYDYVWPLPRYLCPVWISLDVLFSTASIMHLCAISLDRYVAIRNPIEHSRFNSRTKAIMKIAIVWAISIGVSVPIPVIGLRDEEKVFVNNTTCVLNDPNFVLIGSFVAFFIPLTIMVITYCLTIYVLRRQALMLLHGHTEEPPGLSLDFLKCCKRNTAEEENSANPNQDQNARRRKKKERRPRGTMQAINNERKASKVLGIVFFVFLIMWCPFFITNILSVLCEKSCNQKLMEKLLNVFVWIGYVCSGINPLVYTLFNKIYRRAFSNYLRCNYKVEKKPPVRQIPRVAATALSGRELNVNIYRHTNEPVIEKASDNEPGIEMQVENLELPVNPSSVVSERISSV
Method: as §1, §2, §3

[8] = test system: plasma dopamine/norepinephrine; assay: Plasma dopamine/norepinephrine in congestive heart failure patients; type: in vivo, human
Method: In studies of congestive heart failure patients, changes in plasma dopamine levels, norepinephrine levels, and dopamine/norepinephrine ratios after treatment with nepicastat in a 10 day study were determined.
In studies of congestive heart failure patients, plasma dopamine levels, norepinephrine levels, and dopamine/norepinephrine ratios and changes of the levels and the ratios after treatment with nepicastat in a 30 day study were determined.

In the case of `Cl.NCc1c[nH]c(=S)n1[C@H]1CCc2c(F)cc(F)cc2C1` [nepicastat, (S)-5-Aminomethyl-1-(5,7-difluoro-1,2,3,4-tetrahydronaphth-2-yl)-2,3-dihydro-2-thioxo-1H-imidazole hydrochloride], the “hypertensive and tachycardic responses to preganglionic nerve stimulation” value ([1]; 3 mg/kg p.o., 5 hours after dosing) is reported as “significantly attenuated the hypertensive and tachycardic responses”, the “heart rate response to PNS” value ([1]; 5 h after dosing) is reported as “not significantly affected” and the “maximum shift in the frequency-pressor response curve” value ([1]; 5 h after dosing) is reported as about 5 fold. For the same molecule, the Ki [2] was over 10 µM, the Ki [3] was over 10 µM and the Ki [4] was over 10 µM. For the same molecule, the Ki [5] was over 10 µM, the Ki [6] was over 10 µM and the Ki [7] was over 10 µM. The dopamine/norepinephrine levels ([8]; 10 day study) was “increased dopamine/norepinephrine levels” and the dopamine/norepinephrine levels ([8]; 30 day study) was “increased dopamine/norepinephrine levels”.
